Test results from patent publication US11793852B2, “Application of Longhu Rendan in preparing medicament for preventing and/or treating liver fibrosis” (Shanghai Zhonghua Pharmaceutical Co., Ltd, priority 2017, dated 2023).

How the values were obtained:
[1] = tested on: mice with liver fibrosis induced by CCl4; test: Pathological indicators (HE, Sirius Red, α-SMA immunohistochemical staining of livers) in mice with liver fibrosis induced by CCl4; assay type: in vivo; settings: silybin 70 mg/kg/d, 6 weeks
Protocol: (§1) Experimental animals: SPF grade C57 mice, 8-week old, half male and half female, supplied by Guangdong Medical Lab Animal Center, housed in an animal room in a barrier environment (SPF grade), and feeds and water and libitum. Certificate [SCXK(YUE) 2013-0002].
(§2) Administration: 32 pills of Longhu Rendan were placed in a mortar and ground, dissolved in 20 mL of 0.5% CMC-Na, pipetted into a 50-mL centrifuge tube, vortexed to be completely dissolved, and made up to 32 mL (solution A). Six 5-ml EP tubes were charged with the solution A per 3 mL/tube (namely, daily dosage for a high-dose group). Another 50-mL tube was charged with 9 ml of the solution A, added with 9 mL 0.5% CMC-Na, and mixed uniformly; and six 5-ml EP tubes were charged with the solution per 3 mL/tube (namely, daily dosage for a medium-dose group). Another 50-mL centrifuge tube was charged with 4.5 ml of the solution A, added with the 0.5% CMC-Na solution to 18 mL, and mixed uniformly; and six 5-ml EP tubes were charged with the solution per 3 mL/tube (namely, daily dosage for a low-dose group). Continue for 6 weeks, 6×32 pills=192 pills in total, about 4 boxes.
Formulation of silybin: one 50-mL centrifuge tube was added with 10 to 12 mL of 0.5% CMC-Na, charged with 4 capsules, dissolved, made up to 20 mL with 0.5% CMC-Na, and mixed uniformly. Six 5-ml EP tubes were charged with the solution per 3 mL/tube (namely, daily dosage). Continue for 6 weeks, 6×4 capsules=24 capsules in total, about 2 boxes.
[…] healthy KM mice were randomly divided into 6 groups with 8 mice/group. Namely: a blank control group, a CCl4 model group, a silybin positive control group, and low, medium, and high dose groups of Longhu Rendan. All groups received a normal diet. […]
HE staining, Sirius Red staining, and smooth muscle actin protein α-SMA immunohistochemical staining. Positive staining areas of Sirius Red staining and immunohistochemical staining were calculated by the ImageJ software, data was processed and plotted by GraphPadPrism, and t-test analysis was performed, where P<0.05 was considered statistically significant.

[2] = tested on: mice with liver fibrosis induced by CCl4; test: Serological indicators (serum AST and ALT activity) in mice with liver fibrosis induced by CCl4; assay type: in vivo; settings: silybin 70 mg/kg/d, gastric perfusion, 6 weeks; compared to the CCl4 group, P<0.05
Protocol: as §1
as §2, with “boxes. […]” for “boxes.”
After fasting for 12 h, the eyeballs were removed and blood was taken and serum was separated. ALT and AST activities were determined by alanine aminotransferase (ALT) and aspartate aminotransferase (AST) kits.

With `COc1cc(C2Oc3cc([C@H]4Oc5cc(O)cc(O)c5C(=O)[C@@H]4O)ccc3OC2CO)ccc1O` (stereo partly shown) [silybin] the “degree of fibrosis (Sirius Red staining of mouse livers)” value [1] was “significantly improve the degree of fibrosis”, the “degree of fibrosis (α-SMA immunohistochemical staining of mouse livers)” value [1] was “significantly improve the degree of fibrosis” and the “inflammatory infiltration and liver injury (HE staining of mouse livers)” value ([1]; compared to the CCl4 model group) was “improved at different degrees”. The “serum AST activity” value [2] was “significantly reduced”.
